Experimental data as given in PMC5062470, “The mGluR2 positive allosteric modulator, SAR218645, improves memory and attention deficits in translational models of cognitive symptoms associated with schizophrenia” (Scientific Reports, 2016).

How the values were obtained:
human mGluR6 = target: T1, human mGluR6 (Homo sapiens, UniProt O15303); assay: Multispan Allosteric Profiling panel, Ca2+ (Gqi5); assay type: cell-based
T1 construct: host or cells: HEK293 co-expressing Gqi5

Sprague-Dawley rats = assay: DOI-induced glutamate release in the medial prefrontal cortex (microdialysis); assay type: in vivo
Procedure: Male Sprague-Dawley rats (320–350 g) were housed two per cage. Two days before the dialysis assay, they were anesthetized with chloral hydrate (400 mg/kg, ip, 10 ml/kg of body weight) and placed in a stereotaxic apparatus (David Kopf Instruments, Tujunga, CA, USA). Anesthesia was maintained throughout surgery as necessary with supplementary doses of chloral hydrate. Body temperature was monitored by a rectal probe and adjusted (37 ± 1 °C) by a homeothermic blanket. The skull and the dura were opened to allow the implantation of a guide cannula in the medial prefrontal cortex (PFC). The coordinates were […] to bregma, […] to the midline and […] the dural surface. A dental cement cap held the cannula in place, and three screws anchored the cap to the skull. The rats were individually housed post-surgery and allowed two days of recovery before the start of the experiment. On the day of the experiment, animals were placed in a microdialysis bowl, the cannula cap was removed, and a […] (CMA12, Carnegie Medicine AB, Stockholm, Sweden) was inserted into the guide cannula. The probe was perfused at a constant flow rate of 1 μl/min using a microinjection pump (CMA100; Carnegie Medicine AB) with a gassed Ringer’s solution containing (in mM): NaCl (145), KCl (2.7), CaCl2 (1.2), MgCl2 (1), Na2HPO4 (2.3), […]; pH 7.4. Microdialysis sampling started 120 min after probe placement into the PFC. The outlet of the probe was connected to an on-line derivatization system allowing direct analysis of dialysate samples collected every 15 min. […] CE experiments were performed on a P/ACE MDQ capillary electrophoresis system (Beckman Coulter, Villepinte, France) coupled to an external Zetalif fluorescence detector (Picometrics S.A., Toulouse, France). […] The emission intensity was measured at a wavelength of 490 nm. […] Dose-effect of SAR218645 was evaluated by comparing the area under the curve during the first 150 min after po injection of the drug or vehicle. […]

CD-1 mice = assay: DOI-induced head-twitch behaviors; assay type: in vivo
Procedure: Male CD-1 mice weighing 25–30 g at the time of testing were used. Animals were brought into the testing area and allowed at least 30 min to acclimatize. The behavior observation was conducted in a wire test chamber measuring 10 cm^3. SAR218645 or the selective 5-HT2A receptor antagonist, volinanserin, was administered po at various times before administration of DOI. DOI was injected ip at a dose of 1 mg/kg. Five minutes later behavioral observation commenced. A trained (blinded) observer continuously watched the mice for 20 min and noted the number of DOI-induced head twitches during this time. The number of head twitches per group was averaged and SAR218645 or volinanserin plus DOI were compared to DOI alone. Three to eight animals per group were used.

C57BL/6J mice = assay: Amphetamine-induced disruption of latent inhibition (LI); assay type: in vivo; details: dose-range 0.1–10, po
Procedure: The procedure was based on that described by Lipina et al.[39]. Briefly, male C57BL/6J mice (20–30 g, 6–8-week-old) were water restricted and trained to drink in an operant chamber for 15 min over 5 daily sessions. The LI procedure was completed in the following stages each given 24 h apart: (a) Pre-exposure: The preexposed (PE) animals received 40, 85-dB white noise presentations in the chamber for 50 min; the non-preexposed (NPE) animals were confined to the chamber for the same period but without the presence of the tone. (b) Conditioning: All mice received 2 tone-shock (1 s, 0.37 mA) pairings in the chamber. (c) Test: Each mouse was placed in the chamber and allowed to drink. After completing 75 licks, the white noise was presented and lasted until the mouse completed 100 licks. For data analysis, the time during 50–75 licks (A period) and the time to complete licks 76–100 (after tone onset; B period) was calculated into a suppression ratio defined as A/(A+B). A low suppression ratio indicates a stronger suppression of drinking. LI is defined as an […] in suppression ratio (little or no suppression), whereas a shorter time to complete licks 76–100 of the pre-exposed mice compared to the non-pre-exposed mice. Data (i.e. suppression ratio) were analyzed using the Friedman nonparametric two-way ANOVA model. […]

OF1 mice = assay: 6-Hz electroshock-induced seizures; assay type: in vivo; details: dose-range 10–30, ip
Procedure: SAR218645 (10 and 30 mg/kg, po) and the reference anticonvulsant agent, levetiracetam (20 mg/kg), were administered ip. to OF1 mice (12–14 g) 30 min prior to test, respectively. An electrical stimulus (6 Hz, 0.2 ms rectangular pulse, 3 s duration, 32 mA) was applied to both corneas. Animals were closely observed and rated for seizure behavior according to a modified Racine scale. Kruskal-Wallis multiple comparisons test was used to assess potential differences between treatment groups.

mice = test system: mice; parameters: method as in earlier work; details: wide dose-range; cited from earlier work

T1 sequence (O15303 25-877): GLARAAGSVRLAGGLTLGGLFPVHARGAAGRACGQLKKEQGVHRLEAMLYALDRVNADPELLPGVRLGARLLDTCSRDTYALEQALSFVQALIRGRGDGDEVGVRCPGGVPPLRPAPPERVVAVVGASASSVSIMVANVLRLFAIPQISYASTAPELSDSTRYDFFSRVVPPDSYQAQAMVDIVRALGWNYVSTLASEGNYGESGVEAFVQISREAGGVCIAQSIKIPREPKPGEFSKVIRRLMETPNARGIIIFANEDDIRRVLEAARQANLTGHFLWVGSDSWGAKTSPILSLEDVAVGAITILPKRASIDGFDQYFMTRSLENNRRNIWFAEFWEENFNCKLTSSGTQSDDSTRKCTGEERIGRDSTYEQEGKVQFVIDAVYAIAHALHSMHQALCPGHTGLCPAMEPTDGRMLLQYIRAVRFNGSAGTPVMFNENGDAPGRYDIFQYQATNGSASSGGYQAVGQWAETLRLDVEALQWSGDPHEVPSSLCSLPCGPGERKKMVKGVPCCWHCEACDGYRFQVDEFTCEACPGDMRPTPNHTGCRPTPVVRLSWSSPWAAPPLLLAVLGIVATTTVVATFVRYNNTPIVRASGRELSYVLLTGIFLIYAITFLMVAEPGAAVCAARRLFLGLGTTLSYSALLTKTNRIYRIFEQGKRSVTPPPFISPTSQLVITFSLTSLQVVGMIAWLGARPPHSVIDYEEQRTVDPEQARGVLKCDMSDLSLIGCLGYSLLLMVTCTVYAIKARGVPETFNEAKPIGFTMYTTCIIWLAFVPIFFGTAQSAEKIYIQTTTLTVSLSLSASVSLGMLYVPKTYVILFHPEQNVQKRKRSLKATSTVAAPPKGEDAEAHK

Structure (SMILES): CC1(C)CCc2cc(OC[C@@H]3Cn4ccc(=O)nc4O3)ccc21 [SAR218645, (S)-2-(1,1-dimethyl-indan-5-yloxymethyl)-2,3-dihydro-oxazolo[3,2-a]pyrimidin-7-one]
- effect on glutamate-induced activation (human mGluR6; 10 μM SAR218645): no effect
- calcium response to compound alone (human mGluR6; SAR218645 alone): did not elicit a calcium response
- effect on DOI-induced increase in extracellular glutamate (time-course) (Sprague-Dawley rats; 3 mg/kg po, 30 min before DOI 2.5 mg/kg sc): blocked significantly
- effect on glutamate AUC during 150 min (Sprague-Dawley rats; 30 mg/kg po, P < 0.05): reaching statistical significance
- Minimal active dose (Sprague-Dawley rats; dose-range 0.3–30, po, Sprague-Dawley rats): 3 mg/kg
- Minimal active dose (CD-1 mice; dose-range 1–10, po, CD-1 mice): 3 mg/kg
- effect on DOI-induced head twitches (CD-1 mice; po, DOI 1 mg/kg ip, significant at 3 and 10 mg/kg): dose-dependently inhibited
- Minimal active dose (C57BL/6J mice): 1 mg/kg
- Minimal active dose (OF1 mice): >30 mg/kg
- effect on the ability of haloperidol and risperidone to alleviate psychostimulant-induced hyperactivity (mice): did not alter
